Laboratory results from ChEMBL document CHEMBL1155873, “Sesquiterpenes from the Hainan Sponge Dysidea septosa” (J Nat Prod, 2008).

Target: T1, Tyrosine-protein phosphatase non-receptor type 1 (Homo sapiens, UniProt P18031)
T1 sequence (P18031 whole entry): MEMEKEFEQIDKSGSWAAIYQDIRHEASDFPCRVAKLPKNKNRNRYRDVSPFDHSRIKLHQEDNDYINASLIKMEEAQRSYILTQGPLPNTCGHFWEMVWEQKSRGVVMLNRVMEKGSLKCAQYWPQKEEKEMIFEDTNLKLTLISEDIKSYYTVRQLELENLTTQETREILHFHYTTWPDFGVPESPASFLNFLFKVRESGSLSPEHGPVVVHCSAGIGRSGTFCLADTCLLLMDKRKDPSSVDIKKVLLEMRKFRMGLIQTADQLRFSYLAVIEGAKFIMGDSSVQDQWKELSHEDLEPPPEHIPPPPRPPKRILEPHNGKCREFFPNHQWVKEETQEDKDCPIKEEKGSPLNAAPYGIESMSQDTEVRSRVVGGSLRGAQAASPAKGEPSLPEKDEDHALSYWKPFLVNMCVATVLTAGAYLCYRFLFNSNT
Test: Inhibition of human recombinant PTP1B catalytic domain

SMILES | IC50 [µM]
CC1=C[C@@H]2C[C@H](C)[C@]1(C)CCc1ccoc12 | 8.78
C=C1CCC[C@@H](C)[C@@]1(C)CCc1ccoc1 | 31.1
C=C1C=CC[C@@H](C)[C@@]1(C)CCC1=CC(O)OC1=O (some centres undefined) [HYDROXYBUTENOLIDE] | 46.7
C[C@@H]1[C@@H]2C=C[C@@](C)(OO2)[C@@]1(C)CCC1=CC(O)OC1=O (some centres undefined) [LINGSHUIPEROXIDE] | 31.4
